ChEMBL document CHEMBL1201862, “PubChem BioAssay data set” (2004)
Active and inactive are the calls of the source.

Key:
[1] = biological target: T1, Caspase-3 (Homo sapiens, UniProt P42574); experiment: Dose-response confirmation of uHTS inhibitor hits of Sentrin-Specific Protease 8 in a Caspase-3 Fluorescence assay.; format: functional
T1 sequence (P42574 whole entry): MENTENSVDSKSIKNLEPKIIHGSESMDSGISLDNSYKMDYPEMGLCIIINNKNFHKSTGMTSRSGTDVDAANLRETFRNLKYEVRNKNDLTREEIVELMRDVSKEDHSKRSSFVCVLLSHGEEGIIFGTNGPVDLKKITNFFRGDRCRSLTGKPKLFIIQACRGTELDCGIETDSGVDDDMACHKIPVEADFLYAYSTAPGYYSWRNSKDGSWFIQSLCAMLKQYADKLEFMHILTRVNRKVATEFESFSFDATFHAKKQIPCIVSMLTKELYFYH

[2] = biological target: T2, Sentrin-specific protease 8 (Homo sapiens, UniProt Q96LD8); format: functional
T2 sequence (Q96LD8 whole entry): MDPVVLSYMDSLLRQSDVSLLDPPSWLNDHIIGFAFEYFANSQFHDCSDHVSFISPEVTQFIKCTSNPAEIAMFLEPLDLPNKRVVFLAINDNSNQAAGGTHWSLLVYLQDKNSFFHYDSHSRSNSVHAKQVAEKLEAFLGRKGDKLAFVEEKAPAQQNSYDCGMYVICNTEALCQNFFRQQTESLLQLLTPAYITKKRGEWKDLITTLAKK

[3] = biological target: T2, Sentrin-specific protease 8; format: functional; remark: listed apart in the source
[4] = viability loss in HepG2 hepatoma cells – cell-based, ATP luminescence, cherry-pick, activator set 2, cytotoxicity control, dose response (AID 1053143); format: functional
[5] = blockers of HIV-1 envelope-mediated cell-cell fusion – cherry-pick, dose response (AID 652057); format: functional, cell-based
[6] = biological target: Albumin (Bos taurus, UniProt P02769); experiment: Counterscreen for inhibitors of T-cell receptor (TCR)-CD3 interaction: Fluorescence-based biochemical high throughput dose response assay to identify inhibitors of T-cell receptor (TCR)-CD3 interaction using a TAMRA-labeled BSA probe.; format: functional
Chain of Albumin (P02769 whole entry): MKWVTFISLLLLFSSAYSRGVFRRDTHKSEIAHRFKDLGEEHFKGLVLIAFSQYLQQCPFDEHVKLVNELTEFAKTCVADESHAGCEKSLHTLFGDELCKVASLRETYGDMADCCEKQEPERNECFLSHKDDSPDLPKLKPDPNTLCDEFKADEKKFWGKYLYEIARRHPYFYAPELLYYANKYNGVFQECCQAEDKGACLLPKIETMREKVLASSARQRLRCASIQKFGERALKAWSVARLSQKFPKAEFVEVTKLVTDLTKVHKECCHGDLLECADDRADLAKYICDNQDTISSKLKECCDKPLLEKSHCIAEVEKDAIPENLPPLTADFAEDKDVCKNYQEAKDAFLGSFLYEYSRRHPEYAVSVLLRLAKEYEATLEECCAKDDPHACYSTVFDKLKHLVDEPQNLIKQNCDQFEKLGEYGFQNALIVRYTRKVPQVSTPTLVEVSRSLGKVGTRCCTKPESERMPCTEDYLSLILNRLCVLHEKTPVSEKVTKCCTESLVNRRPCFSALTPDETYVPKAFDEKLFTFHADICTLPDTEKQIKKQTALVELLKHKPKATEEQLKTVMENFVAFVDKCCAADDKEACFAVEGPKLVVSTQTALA

[7] = Vero E6 cell cytotoxicity, dose response, cytotoxicity control for non-replicating M. tuberculosis project, secondary assay (AID 492998); format: functional, VeroE6; conditions: Vero C1008
[8] = off-target signal loss in HeLa-CEM21 co-culture – HeLa F-luc CTL cells, cherry-picked, counter-screen for HIV-1 Env fusion inhibitor project, dose response (AID 652040); format: functional, cell-based;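 also: potency for signal decrease marking cytotoxic or nonspecific inhibition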
[9] = HIV-1 AD8 envelope cell-cell fusion blockers – cherry-pick, dose response (AID 652062); format: functional, cell-based;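 also: luciferase signal from cell-cell fusion driven by HIV-1 clade B AD8 Env; potency is for inhibitors of fusion seen as a drop in luminescence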
[10] = blockers of HIV-1 ZM109 envelope-driven cell-cell fusion – HeLa effector, CEM target cells, luciferase, cherry-pick, dose response (AID 652058); format: functional, cell-based;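 also: luciferase signal from HIV-1 Env mediated cell-cell fusion of effector and target cells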
[11] = HepG2 cell cytotoxicity, dose response, cytotoxicity control for non-replicating M. tuberculosis project (AID 489018); format: functional; conditions: Mycobacterium tuberculosis
[12] = THP-1 cell cytotoxicity, dose response, cytotoxicity control for non-replicating M. tuberculosis project (AID 489025); format: functional
[13] = biological target: T3, SUMO-activating enzyme (Homo sapiens, UniProt Q9UBT2); experiment: blockers of SAE1/SAE2–UBC9 SUMO transfer – biochemical, HTRF, uHTS, primary screen (AID 2006); format: protein-complex assay
T3 sequence (Q9UBE0 whole entry): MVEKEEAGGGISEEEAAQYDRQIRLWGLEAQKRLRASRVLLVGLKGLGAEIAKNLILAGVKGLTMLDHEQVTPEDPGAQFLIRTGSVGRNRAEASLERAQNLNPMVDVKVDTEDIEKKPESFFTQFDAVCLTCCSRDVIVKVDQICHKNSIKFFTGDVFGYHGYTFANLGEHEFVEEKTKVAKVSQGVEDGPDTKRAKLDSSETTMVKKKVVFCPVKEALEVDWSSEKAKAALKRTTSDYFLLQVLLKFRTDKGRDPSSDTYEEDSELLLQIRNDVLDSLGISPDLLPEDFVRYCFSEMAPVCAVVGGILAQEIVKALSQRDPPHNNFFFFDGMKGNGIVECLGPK
T3 sequence (Q9UBT2 whole entry): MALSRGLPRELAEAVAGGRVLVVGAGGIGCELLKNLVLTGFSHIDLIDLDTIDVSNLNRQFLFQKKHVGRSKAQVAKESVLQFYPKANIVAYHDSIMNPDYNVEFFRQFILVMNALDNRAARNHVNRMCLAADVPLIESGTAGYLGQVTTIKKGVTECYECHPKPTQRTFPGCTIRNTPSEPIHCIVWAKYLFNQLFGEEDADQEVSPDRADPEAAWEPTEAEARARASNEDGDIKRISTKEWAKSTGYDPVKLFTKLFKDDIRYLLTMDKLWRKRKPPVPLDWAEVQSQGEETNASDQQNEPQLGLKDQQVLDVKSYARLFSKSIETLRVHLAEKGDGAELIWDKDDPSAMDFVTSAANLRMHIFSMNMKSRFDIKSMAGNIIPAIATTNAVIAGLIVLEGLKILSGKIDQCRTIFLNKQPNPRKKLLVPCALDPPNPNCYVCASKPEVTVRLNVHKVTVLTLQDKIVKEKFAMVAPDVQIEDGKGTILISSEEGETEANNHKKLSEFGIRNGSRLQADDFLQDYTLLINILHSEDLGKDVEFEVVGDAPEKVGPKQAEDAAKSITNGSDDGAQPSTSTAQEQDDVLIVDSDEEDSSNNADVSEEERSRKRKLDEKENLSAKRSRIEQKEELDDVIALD

[14] = biological target: Long-chain-fatty-acid--AMP ligase FadD28 (Mycobacterium tuberculosis, UniProt P9WQ59); experiment: Fluorescence polarization aasay to screen for inhibitors that compete for the binding of FadD28 to a bisubstrate Measured in Biochemical System Using Plate Reader - 2147-01_Inhibitor_Dose_CherryPick_Activity.; format: functional, Mycobacterium tuberculosis H37Rv
Chain of Long-chain-fatty-acid--AMP ligase FadD28 (P9WQ59 whole entry): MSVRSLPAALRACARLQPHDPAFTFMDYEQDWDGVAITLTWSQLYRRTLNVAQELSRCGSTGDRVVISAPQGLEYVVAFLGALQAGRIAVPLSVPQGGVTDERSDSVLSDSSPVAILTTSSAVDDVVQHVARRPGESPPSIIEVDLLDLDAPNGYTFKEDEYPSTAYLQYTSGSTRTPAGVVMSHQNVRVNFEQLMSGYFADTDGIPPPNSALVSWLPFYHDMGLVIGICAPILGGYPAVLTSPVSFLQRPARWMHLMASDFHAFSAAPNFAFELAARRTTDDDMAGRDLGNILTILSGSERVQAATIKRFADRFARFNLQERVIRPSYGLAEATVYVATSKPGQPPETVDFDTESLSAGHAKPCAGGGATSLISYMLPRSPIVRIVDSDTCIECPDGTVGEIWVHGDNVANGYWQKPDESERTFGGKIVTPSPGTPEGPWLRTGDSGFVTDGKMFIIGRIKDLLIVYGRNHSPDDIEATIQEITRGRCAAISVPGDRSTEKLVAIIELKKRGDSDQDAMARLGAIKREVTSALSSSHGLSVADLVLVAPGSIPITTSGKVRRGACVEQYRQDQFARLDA

[15] = biological target: Genome polyprotein (dengue virus type 2, UniProt P29990); experiment: flavivirus cap methylation enzyme inhibition – biochemical, confirmation dose response, primary screen (AID 588689); format: functional
Chain of Genome polyprotein (P29990 2492-3391 limits assumed): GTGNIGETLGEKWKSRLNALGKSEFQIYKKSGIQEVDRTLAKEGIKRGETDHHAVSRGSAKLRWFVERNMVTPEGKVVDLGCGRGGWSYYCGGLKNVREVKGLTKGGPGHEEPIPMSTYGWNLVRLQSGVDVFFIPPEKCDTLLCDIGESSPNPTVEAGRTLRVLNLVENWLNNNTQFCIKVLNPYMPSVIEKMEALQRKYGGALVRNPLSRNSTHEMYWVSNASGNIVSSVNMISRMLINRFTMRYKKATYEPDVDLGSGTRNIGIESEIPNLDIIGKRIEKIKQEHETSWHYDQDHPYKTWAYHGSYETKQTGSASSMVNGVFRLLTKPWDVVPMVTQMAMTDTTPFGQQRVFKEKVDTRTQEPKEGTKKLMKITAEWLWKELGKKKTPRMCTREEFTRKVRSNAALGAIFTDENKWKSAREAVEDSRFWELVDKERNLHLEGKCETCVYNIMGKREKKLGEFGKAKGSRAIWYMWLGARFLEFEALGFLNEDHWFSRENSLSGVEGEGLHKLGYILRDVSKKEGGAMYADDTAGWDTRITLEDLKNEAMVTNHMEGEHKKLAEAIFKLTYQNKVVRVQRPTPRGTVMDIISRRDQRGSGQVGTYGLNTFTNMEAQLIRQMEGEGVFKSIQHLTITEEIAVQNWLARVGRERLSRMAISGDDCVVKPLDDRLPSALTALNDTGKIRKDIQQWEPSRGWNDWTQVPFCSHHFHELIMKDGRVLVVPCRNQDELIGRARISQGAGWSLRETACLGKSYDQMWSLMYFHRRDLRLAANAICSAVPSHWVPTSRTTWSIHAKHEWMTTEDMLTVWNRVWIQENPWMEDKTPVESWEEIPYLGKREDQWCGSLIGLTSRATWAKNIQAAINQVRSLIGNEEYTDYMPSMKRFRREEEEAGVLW

[16] = biological target: T3, SUMO-activating enzyme; experiment: blockers of UBC9-mediated SUMO conjugation – biochemical, AlphaScreen, SUMOylation inhibitor project, confirmation (AID 2018); format: functional
[17] = biological target: T4, Trace amine-associated receptor 1 (Homo sapiens, UniProt Q96RJ0); experiment: Counterscreen for agonists of the human trace amine associated receptor 1 (hTAAR1): Fluorescence-based cell-based high throughput dose response assay to identify hTAAR1 agonist that also desensitize TAAR1 receptor response.; format: functional
T4 sequence (Q96RJ0 whole entry): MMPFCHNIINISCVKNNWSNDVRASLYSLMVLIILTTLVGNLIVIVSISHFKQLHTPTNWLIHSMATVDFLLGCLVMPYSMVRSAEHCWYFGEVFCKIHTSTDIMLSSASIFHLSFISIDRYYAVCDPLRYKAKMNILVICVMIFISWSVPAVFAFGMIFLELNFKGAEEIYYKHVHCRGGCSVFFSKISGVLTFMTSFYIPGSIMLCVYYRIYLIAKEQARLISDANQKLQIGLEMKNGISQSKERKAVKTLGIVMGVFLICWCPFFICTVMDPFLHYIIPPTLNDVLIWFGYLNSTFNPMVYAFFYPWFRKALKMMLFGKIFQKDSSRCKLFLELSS

[18] = cells; format: functional, cell-based
[19] = cells; format: functional, cell-based; remark: listed apart in the source
[20] = biological target: T4, Trace amine-associated receptor 1; experiment: Fluorescence-based cell-based high throughput dose response assay to identify agonists of the human trace amine associated receptor 1 (TAAR1).; format: functional
[21] = biological target: DNA repair protein RAD52 homolog (Homo sapiens, UniProt P43351); format: functional, biochemical
Chain of DNA repair protein RAD52 homolog (P43351 whole entry): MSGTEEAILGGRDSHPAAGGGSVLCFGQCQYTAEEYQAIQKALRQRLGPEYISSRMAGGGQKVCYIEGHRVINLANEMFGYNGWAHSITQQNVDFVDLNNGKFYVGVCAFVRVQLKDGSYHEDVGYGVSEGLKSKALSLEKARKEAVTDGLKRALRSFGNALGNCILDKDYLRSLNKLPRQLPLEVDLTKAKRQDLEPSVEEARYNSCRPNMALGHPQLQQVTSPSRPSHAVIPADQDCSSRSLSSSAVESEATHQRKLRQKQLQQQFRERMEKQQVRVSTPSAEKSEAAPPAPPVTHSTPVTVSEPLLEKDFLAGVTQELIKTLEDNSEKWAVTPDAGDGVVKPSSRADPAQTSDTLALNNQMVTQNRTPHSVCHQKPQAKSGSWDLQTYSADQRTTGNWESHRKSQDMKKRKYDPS

[22] = biological target: T5, Protein skinhead-1 (Caenorhabditis elegans, UniProt P34707); format: functional
T5 sequence (P34707 whole entry): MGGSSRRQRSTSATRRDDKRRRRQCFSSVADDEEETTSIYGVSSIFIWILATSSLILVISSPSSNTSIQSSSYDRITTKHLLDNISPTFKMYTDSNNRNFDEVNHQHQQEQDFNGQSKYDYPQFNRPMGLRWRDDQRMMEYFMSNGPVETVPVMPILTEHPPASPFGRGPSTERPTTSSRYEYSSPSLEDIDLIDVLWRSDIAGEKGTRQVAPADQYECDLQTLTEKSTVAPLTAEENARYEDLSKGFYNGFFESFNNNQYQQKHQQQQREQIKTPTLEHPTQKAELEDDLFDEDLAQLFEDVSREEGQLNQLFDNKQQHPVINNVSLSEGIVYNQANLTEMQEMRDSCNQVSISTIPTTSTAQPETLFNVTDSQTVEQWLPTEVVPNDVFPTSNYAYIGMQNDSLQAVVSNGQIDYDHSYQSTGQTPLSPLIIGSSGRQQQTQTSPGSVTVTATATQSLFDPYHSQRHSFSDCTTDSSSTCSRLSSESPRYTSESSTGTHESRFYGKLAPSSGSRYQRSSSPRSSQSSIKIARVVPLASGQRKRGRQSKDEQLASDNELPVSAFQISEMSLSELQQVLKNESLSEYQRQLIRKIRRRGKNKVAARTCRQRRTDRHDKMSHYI

[23] = biological target: T6, Histone-lysine N-methyltransferase NSD2 (Homo sapiens, UniProt O96028); format: biochemical
T6 sequence (O96028 whole entry): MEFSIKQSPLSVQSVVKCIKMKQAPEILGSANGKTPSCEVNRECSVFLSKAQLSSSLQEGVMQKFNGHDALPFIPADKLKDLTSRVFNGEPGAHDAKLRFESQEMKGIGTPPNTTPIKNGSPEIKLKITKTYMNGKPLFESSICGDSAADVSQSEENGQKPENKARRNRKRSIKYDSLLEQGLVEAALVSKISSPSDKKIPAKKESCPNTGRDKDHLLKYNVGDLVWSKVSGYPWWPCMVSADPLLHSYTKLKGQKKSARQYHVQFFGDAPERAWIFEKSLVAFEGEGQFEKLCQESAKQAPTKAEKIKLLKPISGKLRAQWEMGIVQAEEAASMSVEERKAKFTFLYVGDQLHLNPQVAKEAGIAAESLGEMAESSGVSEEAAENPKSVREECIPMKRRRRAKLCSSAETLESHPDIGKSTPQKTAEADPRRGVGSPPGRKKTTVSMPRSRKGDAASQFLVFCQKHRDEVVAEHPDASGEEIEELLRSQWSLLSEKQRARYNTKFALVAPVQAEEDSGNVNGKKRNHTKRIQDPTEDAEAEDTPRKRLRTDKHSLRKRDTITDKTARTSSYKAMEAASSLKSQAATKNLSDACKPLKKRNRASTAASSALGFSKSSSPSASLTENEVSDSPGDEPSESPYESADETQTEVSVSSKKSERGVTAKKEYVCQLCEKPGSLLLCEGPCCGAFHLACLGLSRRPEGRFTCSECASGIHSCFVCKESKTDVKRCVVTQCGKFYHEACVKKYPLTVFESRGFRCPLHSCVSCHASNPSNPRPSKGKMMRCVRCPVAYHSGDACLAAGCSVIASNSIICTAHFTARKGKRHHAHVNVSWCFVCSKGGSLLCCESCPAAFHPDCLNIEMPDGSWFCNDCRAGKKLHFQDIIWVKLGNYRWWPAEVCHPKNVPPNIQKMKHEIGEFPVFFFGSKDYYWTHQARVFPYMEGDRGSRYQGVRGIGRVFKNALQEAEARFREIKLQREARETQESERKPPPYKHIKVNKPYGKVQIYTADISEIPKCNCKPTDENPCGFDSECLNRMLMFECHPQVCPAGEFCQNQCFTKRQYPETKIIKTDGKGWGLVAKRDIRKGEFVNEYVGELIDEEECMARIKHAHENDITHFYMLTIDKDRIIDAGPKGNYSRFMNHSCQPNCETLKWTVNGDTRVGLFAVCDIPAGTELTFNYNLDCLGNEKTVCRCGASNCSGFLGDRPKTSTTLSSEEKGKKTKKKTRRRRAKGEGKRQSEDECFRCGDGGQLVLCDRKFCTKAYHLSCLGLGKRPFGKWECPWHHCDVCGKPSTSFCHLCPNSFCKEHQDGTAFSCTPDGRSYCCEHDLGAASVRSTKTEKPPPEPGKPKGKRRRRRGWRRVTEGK

[24] = HGIII-sPLA2 enzyme inhibition potency – biochemical, QFRET, IC50, dose response (AID 743457);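 also: green fluorescence rise as the enzyme cleaves BODIPY PC-A2 in liposomes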
[25] = biological target: Fructose-bisphosphate aldolase (Mycobacterium tuberculosis, UniProt P9WQA3); experiment: Fluorescence-based biochemical high throughput dose response assay for inhibitors of the fructose-bisphosphate aldolase (FBA) of M. tuberculosis.; format: functional
Chain of Fructose-bisphosphate aldolase (P9WQA3 whole entry): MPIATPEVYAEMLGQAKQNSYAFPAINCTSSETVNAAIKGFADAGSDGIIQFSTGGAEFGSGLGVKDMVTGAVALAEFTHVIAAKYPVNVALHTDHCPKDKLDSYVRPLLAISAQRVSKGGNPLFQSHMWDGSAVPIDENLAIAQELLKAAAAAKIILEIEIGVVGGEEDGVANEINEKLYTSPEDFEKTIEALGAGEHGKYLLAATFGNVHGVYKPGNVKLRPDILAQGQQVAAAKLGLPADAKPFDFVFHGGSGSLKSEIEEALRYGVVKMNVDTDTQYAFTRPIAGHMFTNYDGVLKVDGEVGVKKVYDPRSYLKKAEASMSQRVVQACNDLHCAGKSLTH

[26] = biological target: Steroidogenic factor 1 (Homo sapiens, UniProt Q13285); experiment: Counterscreen for inverse agonists of the liver receptor homolog-1 (LRH-1; NR5A2): Luminescence-based cell-based high throughput dose response assay to identify inverse agonists of the Steroidogenic Factor 1 Nuclear Receptor (SF1; NR5A1).; format: functional
Chain of Steroidogenic factor 1 (Q13285 whole entry): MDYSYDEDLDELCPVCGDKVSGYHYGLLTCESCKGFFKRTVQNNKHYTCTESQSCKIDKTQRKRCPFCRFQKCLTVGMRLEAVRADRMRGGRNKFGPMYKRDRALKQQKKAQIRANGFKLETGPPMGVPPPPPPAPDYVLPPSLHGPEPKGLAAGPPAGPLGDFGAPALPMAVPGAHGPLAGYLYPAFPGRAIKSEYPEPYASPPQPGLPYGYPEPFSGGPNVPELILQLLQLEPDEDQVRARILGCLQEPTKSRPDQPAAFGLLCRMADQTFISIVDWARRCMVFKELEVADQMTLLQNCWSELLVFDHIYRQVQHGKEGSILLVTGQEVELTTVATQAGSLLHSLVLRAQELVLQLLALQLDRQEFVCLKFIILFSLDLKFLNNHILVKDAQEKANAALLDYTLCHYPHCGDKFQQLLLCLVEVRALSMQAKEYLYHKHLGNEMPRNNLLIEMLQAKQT

[27] = nonselective StAR promoter luciferase inhibitors – cell-based, luminescence, luciferase reporter, counter-screen for LRH-1 inverse agonist project, dose response (AID 651969); format: functional
[28] = biological target: Nuclear receptor subfamily 5 group A member 2 (Homo sapiens, UniProt O00482); format: functional, cell-based;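 also: HEK293T cells transfected with LRH-1 and a StAR promoter luciferase reporter; potency for inhibitors that lower LRH-1 driven reporter light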
Chain of Nuclear receptor subfamily 5 group A member 2 (O00482 whole entry): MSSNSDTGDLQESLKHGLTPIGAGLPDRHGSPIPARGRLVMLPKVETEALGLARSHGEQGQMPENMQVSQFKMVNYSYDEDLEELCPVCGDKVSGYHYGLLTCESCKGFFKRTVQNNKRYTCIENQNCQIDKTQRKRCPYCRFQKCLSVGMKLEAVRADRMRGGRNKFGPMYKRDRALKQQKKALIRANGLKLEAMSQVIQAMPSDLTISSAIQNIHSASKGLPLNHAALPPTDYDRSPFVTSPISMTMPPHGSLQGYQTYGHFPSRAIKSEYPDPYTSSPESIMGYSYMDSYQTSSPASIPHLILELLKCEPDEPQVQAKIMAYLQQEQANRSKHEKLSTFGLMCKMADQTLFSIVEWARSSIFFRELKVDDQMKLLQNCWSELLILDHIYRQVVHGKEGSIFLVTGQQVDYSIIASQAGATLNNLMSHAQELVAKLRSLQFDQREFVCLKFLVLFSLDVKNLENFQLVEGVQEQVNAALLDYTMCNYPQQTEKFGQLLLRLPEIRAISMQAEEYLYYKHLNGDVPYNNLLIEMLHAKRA

COc1ccc(N2C(=O)[C@@H]3[C@H](C2=O)[C@H]2c4ccccc4C=CN2[C@@H]3C(C)=O)cc1
IC50 [1]: 3.03 µM (active)
IC50 [2]: 0.543 µM (active)
IC50 [3]: 1.19 µM (active)

COc1ccc(Nc2ccnc(Nc3ccc(OC)cc3)n2)cc1
AC50 [4]: 26 µM (active)

CC1=NN(C(=O)c2ccccc2)C(O)(c2ccc(Br)cc2)C1 (stereo unspecified)
AC50 [5]: 9.38 µM (active)
IC50 [6]: > 94.2 µM (inactive)
CC50 [7]: > 20 µM (active)
AC50 [8]: 21.6 µM (active)
AC50 [9]: 42.2 µM (active)
AC50 [10]: 8 µM (active)
CC50 [11]: > 20 µM (active)
CC50 [12]: 22.8 µM (active)

CCOc1ccc(C(=O)CCC(=O)NNC(=O)c2ccccc2O)cc1
IC50 [6]: > 94.1 µM (inactive)

CCC(C)(C)C1CCc2c(sc(NC(=O)c3ccccc3C(=O)O)c2C#N)C1 (stereo unspecified)
IC50 [13]: 21.4 µM (active)
AC50 [14]: 37.3 µM (active)
IC50 [15]: 42.6 µM (active)
IC50 [16]: 15.3 µM (active)

COc1ccc(C(=O)NCCc2c[nH]c3ccccc23)cc1S(=O)(=O)N1CCOCC1
AC50 [14]: 82.7 µM (active)

Cc1cc(C(=O)CN2C(=O)C(=O)N(C3CCCC3)C2=O)c(C)n1CCc1ccc(F)cc1
IC50 [17]: 5.57 µM (active)
IC50 [18]: > 29.9 µM (inactive)
EC50 [19]: > 29.9 µM (inactive)
EC50 [20]: 2.96 µM (active)

Cc1c(C)n(Cc2ccccc2)c2ccc(C(=O)OCCN(C)C)cc12
AC50 [21]: 14 µM (active)
IC50 [22]: 58.2 µM (inactive)
AC50 [23]: > 20 µM (inactive)

CCc1c(C)nc2c(-c3ccccc3)cnn2c1O
IC50 [24]: > 122 µM (inactive)
IC50 [25]: 3.39 µM (active)

O=C(Cc1ccccc1)c1nc2ccccc2s1
IC50 [1]: 25 µM (active)
IC50 [2]: 6.06 µM (active)
IC50 [3]: 26.7 µM (active)

COc1ccc2cc3cc(C(=O)N4CCN(C5CCCCC5)CC4)oc3nc2c1
IC50 [25]: 0.92 µM (active)

O=C(CN1C(=O)NC2(CCCC2)C1=O)NCCc1ccc(F)cc1
IC50 [26]: 6.2 µM (active)
IC50 [27]: 35.9 µM (inactive)
IC50 [28]: 35.9 µM (inactive)

CC(C)[C@H](NC(=O)C1CC1)C(=O)N1CCC[C@H]1C(=O)NCCc1ccccc1Cl
IC50 [17]: 3.18 µM (active)
IC50 [18]: > 29.9 µM (inactive)
EC50 [19]: > 29.9 µM (inactive)
EC50 [20]: 3.03 µM (active)

COc1ccc(/C=N/NC(=O)c2ccc(NC(=O)c3cccc([N+](=O)[O-])c3)cc2)c(OC)c1
IC50 [26]: 3.07 µM (active)
IC50 [27]: 35.9 µM (inactive)
IC50 [28]: 23.1 µM (inactive)
